Test systems include NCI-H23 lung; TK-10 renal; EKVX NSCLC; SF-295 CNS; A549 NSCLC; HL-60(TB) leukemia; SK-MEL-5 melanoma; HOP-92 NSCLC; PC-3 prostate; DU-145 prostate.
What all share (assay): growth of human tumour cells (NCI), 48 h

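Compound exposure: 48 hours, 5 concentrations, 96-well plates. GI50: concentration for 50% inhibition of growth. TGI: total growth inhibition.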

With `O=S(=O)(c1ccccc1)C1(C2(S(=O)(=O)c3ccccc3)CCN=N2)CCN=N1` (configuration not stated), the TGI in the test on NCI-H23 lung, with TK-10 renal, in the test with EKVX NSCLC, in the test on SF-295 CNS, in the test on A549 NSCLC and in the test with HL-60(TB) leukemia was > 100 µM each time.
For the molecule `CCCOC(=O)C1C(c2ccc(OC)cc2)NC(c2ccc(OC)cc2)C(C(=O)OCCC)S1(=O)=O` (configuration not stated), the GI50 in the test on SK-MEL-5 melanoma, with NCI-H23 lung, in the test on TK-10 renal, in the test on EKVX NSCLC, in the test with SF-295 CNS and in the test with A549 NSCLC was > 100 µM throughout. The TGI in the test with SK-MEL-5 melanoma, in the test on NCI-H23 lung, in the test with TK-10 renal, in the test on EKVX NSCLC, in the test with SF-295 CNS and in the test on A549 NSCLC was > 100 µM in each case. For the same molecule, the TGI with HL-60(TB) leukemia was > 100 µM.
For the molecule `COC(=O)C(C(=O)C(=O)Nc1nc2ccc(OC)cc2s1)c1cnc2ccccc2n1` (configuration not stated), the TGI in the test with SK-MEL-5 melanoma, in the test with NCI-H23 lung, in the test with HOP-92 NSCLC, in the test on TK-10 renal, in the test on EKVX NSCLC and with SF-295 CNS was > 100 µM each time. Also, the TGI in the test on A549 NSCLC was > 100 µM.
Consider `O=C1CC2=CCCC2O1` (configuration not stated), for which the TGI with SK-MEL-5 melanoma, with NCI-H23 lung, in the test on HOP-92 NSCLC, in the test on TK-10 renal, in the test with EKVX NSCLC and in the test with SF-295 CNS was > 100 µM each time. The TGI in the test on A549 NSCLC and in the test with HL-60(TB) leukemia was > 100 µM in each case.
With `CC[P+](C)(C)CC`, the TGI in the test with SK-MEL-5 melanoma, in the test on NCI-H23 lung, with HOP-92 NSCLC, in the test on TK-10 renal, in the test on EKVX NSCLC and in the test with SF-295 CNS was > 100 µM throughout. Besides, the TGI with A549 NSCLC and in the test on HL-60(TB) leukemia was > 100 µM throughout.
For the molecule `Oc1ccc(Br)cc1C=Nc1ccc(Oc2ccc(N=Cc3cc(Br)ccc3O)cc2)cc1`, the TGI in the test with SK-MEL-5 melanoma, with NCI-H23 lung, with HOP-92 NSCLC, in the test with TK-10 renal, with EKVX NSCLC and in the test with SF-295 CNS was > 19.6 µM in each case. Besides, the TGI in the test on A549 NSCLC and with HL-60(TB) leukemia was > 19.6 µM each time.
As to `COc1ccc(C2=NC(CO)[C@H](c3ccccc3)O2)cc1OC` (some centres not stated), the TGI in the test with SK-MEL-5 melanoma, with HOP-92 NSCLC, with SF-295 CNS, with A549 NSCLC and in the test with HL-60(TB) leukemia was > 100 µM each time.
As for `CC[C@@]1(O)C(=O)OCc2c1cc1n(c2=O)Cc2cc3c(N)c(OC)ccc3nc2-1`, the GI50 was 0.0739 µM in the test on SK-MEL-5 melanoma; 0.0213 µM with NCI-H23 lung; 0.185 µM in the test with HOP-92 NSCLC; 2.26 µM in the test with TK-10 renal; 0.574 µM in the test with EKVX NSCLC; 0.0267 µM in the test on SF-295 CNS. Besides, the results for the GI50 in the test on A549 NSCLC and in the test on HL-60(TB) leukemia were 0.0445 µM and 0.0266 µM, respectively. For the same molecule, the TGI in the test with SK-MEL-5 melanoma is 0.234 µM; with NCI-H23 lung, 0.142 µM; in the test with HOP-92 NSCLC, 1.85 µM; with TK-10 renal, > 50 µM; in the test with EKVX NSCLC, > 100 µM; in the test with SF-295 CNS, 0.41 µM. Moreover, the figures for the TGI in the test with A549 NSCLC and in the test with HL-60(TB) leukemia were 1.91 µM and 0.187 µM, respectively.
As for `O=S(=O)([O-])c1ccc(C=Nc2ccccc2)c([O-])c1.O=S(=O)([O-])c1ccc(C=Nc2ccccc2)c([O-])c1.[Co+2]`, the GI50 with NCI-H23 lung is > 100 µM; with HOP-92 NSCLC, > 100 µM; in the test with TK-10 renal it was > 100 µM; in the test with EKVX NSCLC, 43.2 µM; in the test with SF-295 CNS, > 100 µM; with A549 NSCLC, 55.2 µM. The GI50 with HL-60(TB) leukemia was 2.7 µM. In addition, the TGI in the test with NCI-H23 lung, in the test on HOP-92 NSCLC, in the test with TK-10 renal, in the test with EKVX NSCLC, with SF-295 CNS and with A549 NSCLC was > 100 µM each time. In addition, in the test on HL-60(TB) leukemia, the TGI was > 100 µM.
For the molecule `O=C1c2ccccc2C(=O)N1CCN(CCN1C(=O)c2ccccc2C1=O)Cc1ccccc1`, the TGI in the test on SK-MEL-5 melanoma, with NCI-H23 lung, in the test on HOP-92 NSCLC, with TK-10 renal, in the test with EKVX NSCLC and with SF-295 CNS was > 100 µM each time. The TGI in the test on A549 NSCLC and in the test on HL-60(TB) leukemia was > 100 µM each time.
Regarding `COc1ccc(C)cc1-c1ccc(-c2cc(C)ccc2OC)o1`, the TGI in the test with NCI-H23 lung, with HOP-92 NSCLC, with TK-10 renal, in the test with EKVX NSCLC, in the test with SF-295 CNS and in the test on A549 NSCLC was > 100 µM in each case. Moreover, in the test with HL-60(TB) leukemia, the TGI is > 100 µM.
For the molecule `COc1cc(Br)c(C=Nc2cccc3ccc(OS(=O)(=O)c4ccc([N+](=O)[O-])cc4)cc23)cc1OC`, the TGI in the test with SK-MEL-5 melanoma, in the test on NCI-H23 lung, with HOP-92 NSCLC, in the test with EKVX NSCLC, with SF-295 CNS and in the test on A549 NSCLC was > 100 µM throughout.
Regarding `O=C1C=C(c2ccccc2)NC1(c1ccccc1)c1cc(-c2ccccc2)[nH]c1-c1ccccc1` (configuration not stated), the TGI with NCI-H23 lung, in the test on EKVX NSCLC, in the test with SF-295 CNS, in the test on A549 NSCLC and with HL-60(TB) leukemia was > 100 µM throughout.
Consider `O=C1CC[C@@H]2[C@H]3CCC(=O)c4c3c(c3cccc(O)c3c4O)O[C@@]23C(=O)c2cccc(O)c2C(O)=C13`, for which the GI50 with SK-MEL-5 melanoma, with PC-3 prostate, in the test on NCI-H23 lung, with TK-10 renal, in the test with EKVX NSCLC and in the test with A549 NSCLC was > 100 µM in each case. The GI50 with DU-145 prostate and in the test on HL-60(TB) leukemia was > 100 µM throughout. The TGI in the test on SK-MEL-5 melanoma, with PC-3 prostate, with NCI-H23 lung, in the test with TK-10 renal, in the test with EKVX NSCLC and with A549 NSCLC was > 100 µM in each case. For the same molecule, the TGI in the test with DU-145 prostate and in the test on HL-60(TB) leukemia was > 100 µM in each case.
